# Patent US9284318B2, “Protein kinase inhibitors” (Pharmascience, Inc., priority 2011, dated 2016)
# What was measured:
# [1] = biological target: T1, recombinant human colony stimulating factor 1 receptor (FMS) (Homo sapiens, UniProt P07333); assay: Biochemical cFMS (CSF1R) fluorescence polarization kinase assay; conditions: 10 μM ATP, 100 μM substrate, 60 minutes
# T1 construct: containing the catalytic domain (amino acids 538-910); His tag; purchased Invitrogen; host or cells: insect cells
# T1 sequence (P07333 538-910): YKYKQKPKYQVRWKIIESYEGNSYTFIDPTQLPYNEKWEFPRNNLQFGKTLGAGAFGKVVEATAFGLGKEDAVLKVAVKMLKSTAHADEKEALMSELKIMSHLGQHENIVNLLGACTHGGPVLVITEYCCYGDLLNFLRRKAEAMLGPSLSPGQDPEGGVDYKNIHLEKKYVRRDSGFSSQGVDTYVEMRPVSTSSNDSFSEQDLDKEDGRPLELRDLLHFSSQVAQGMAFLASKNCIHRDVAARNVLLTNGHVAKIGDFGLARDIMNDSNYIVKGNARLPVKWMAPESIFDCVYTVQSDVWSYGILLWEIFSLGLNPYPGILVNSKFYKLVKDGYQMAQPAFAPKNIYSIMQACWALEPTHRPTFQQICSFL
# Method: Biochemical cFMS (CSF1R) Assay:
# Fluorescence polarization-based kinase biochemical assays were performed in 384 well-plate format using histidine tagged recombinant human colony stimulating factor 1 receptor (FMS) supplied from Invitrogen™ (containing the catalytic domain (amino acids 538-910), expressed in insect cells and activated in vitro via auto phosphorylation) and a modified protocol of the KinEASE™ FP Fluorescein Green Assay supplied from Millipore™.
# Kinase reactions were performed in 384 well plate format at room temperature for 60 minutes in presence of 100 μM substrate, 10 μM ATP and variable test article concentrations. The reaction was stopped with EDTA/KinEASE™ detection reagents and the polarization measured on a Tecan 500 instrument. From the dose-response curve obtained, the IC50 was estimated using Graph pad Prisms® using a non linear fit curve.
# [2] = test system: M-NFS-60 M-CSF-dependent myeloid leukemia cells; assay: Murine M-CSF-dependent M-NFS-60 cell survival assay; assay type: cell-based; conditions: Mus musculus; cell survival at 72 hours, 20 ng/ml M-CSF, Cell Titer-Glo
# Method: Cellular Assays: Murine M-CSF-Dependent M-NFS-60 Cell Survival Assay
# Murine M-NFS-60 M-CSF-dependent myeloid leukemia cells were purchased from ATCC (CRL-1838). Cells were routinely cultured at 37° C., 5% CO2 in complete medium (RPMI supplemented with 10% FBS, 1% penicillin/streptomycin, 50 uM beta mercaptoethanol) containing 30 ng/ml recombinant murine M-CSF (Peprotech 315-02). For survival assays, cells were transferred to depleted medium (complete medium depleted of M-CSF) for 24 hours prior to initiation of each experiment. M-CSF-starved cells were harvested and re-suspended in complete medium containing 20 ng/ml M-CSF. Cells were seeded at 25,000 cells/well in 96-well plates and incubated for 1 hour at 37° C., 5% CO2. Cells were treated with 1 uM or 10 uM compound curves in triplicate and cell survival was measured 72 hours later by Cell Titer-Glo Luminescent Assay (Promega). Luminescence was read using a Tecan Infinite F200 microplate reader. EC50 values (50% survival in the presence of compound as compared to vehicle treated controls) were calculated from non-linear fit dose response compound curves using GraphPad Prism Software.
# [3] = test system: MV4-11 cells; assay: Human MV4-11 biphenotypic B myelomonocytic leukemia cell survival assay; assay type: cell-based; conditions: cell survival at 72h, Cell Titer-Glo
# Method: Human MV4-11 Biphenotypic B Myelomonocytic Leukemia Cell Survival Assay
# Biphenotypic B myelomonocytic leukemia MV4-11 cells (ATCC CRL-9591) were cultured in suspension at 37° C., 5% CO2 in complete medium (RPMI supplemented with 10% FBS, 1% penicillin/streptomycin). One day prior to treatment, cells per seeded in 96-well plates at 8000 cells/well in complete medium. The following day, triplicate wells were treated with compound curves of 100, 1000 or 10,000 nM starting concentration according to compound potency. Cell survival was measured 72h later by Cell Titer-Glo Luminescent Assay (Promega). Luminescence was read using a Tecan Infinite F200 microplate reader. EC50 values (50% survival in the presence of compound as compared to vehicle treated controls) were calculated from non-linear fit dose response compound curves using CambridgeSoft BioAssay software (Perkin Elmer).
SMILES,IC50 [1],EC50 [2],EC50 [3]
Nc1ncnc2c3c(n(-c4ccc(NC(=O)Nc5ccc(Cl)c(C(F)(F)F)c5)cc4)c12)CCC3 [Compound 59],100 to 1000 nM,100 to 1000 nM,< 100 nM
Nc1ncnc2c3c(n(-c4ccc(NC(=O)NCc5ccc(F)cc5)cc4)c12)CCC3 [Compound 52],,100 to 1000 nM,< 100 nM
Nc1ncnc2c3c(n(-c4ccc(NC(=O)Nc5ccccc5C(F)(F)F)cc4)c12)CCC3 [Compound 23],100 to 1000 nM,100 to 1000 nM,> 1000 nM
Nc1ncnc2c3c(n(-c4ccc(NC(=O)Nc5ccc(OC(F)F)cc5)cc4)c12)CCC3 [Compound 27],< 100 nM,< 100 nM,< 100 nM
Nc1ncnc2c3c(n(-c4ccc5c(c4)OCO5)c12)CCC3 [Compound 5],,,> 1000 nM
Nc1ncnc2c3c(n(-c4ccc(NC(=O)Nc5ccc(Cl)cc5)cc4)c12)CCC3 [Compound 22],,< 100 nM,100 to 1000 nM
Nc1ccc(-n2c3c(c4ncnc(N)c42)CCCC3)cc1 [Compound 18],,,100 to 1000 nM
CC(=O)Nc1ccc(-n2c3c(c4ncnc(N)c42)CCC3)cc1 [Compound 37],,,> 1000 nM
COc1ccc(NC(=O)Nc2ccc(-n3c4c(c5ncnc(N)c53)CCC4)cc2)cc1F [Compound 56],< 100 nM,< 100 nM,< 100 nM
CS(=O)(=O)Nc1ccc(-n2c3c(c4ncnc(N)c42)CCC3)cc1 [Compound 6],,,> 1000 nM
Nc1ncnc2c3c(n(-c4ccc(NC(=O)Nc5ccc(C(F)(F)F)cc5)cc4)c12)CCC3 [Compound 21],100 to 1000 nM,< 100 nM,100 to 1000 nM
N#Cc1ccccc1NC(=O)Nc1ccc(-n2c3c(c4ncnc(N)c42)CCC3)cc1 [Compound 71],> 1000 nM,> 1000 nM,100 to 1000 nM
CCNC(=O)Nc1ccc(-n2c3c(c4ncnc(N)c42)CCC3)cc1 [Compound 9],> 1000 nM,> 1000 nM,100 to 1000 nM
Nc1ncnc2c3c(n(-c4ccc(NS(=O)(=O)c5ccccc5)cc4)c12)CCC3 [Compound 3],> 1000 nM,> 1000 nM,> 1000 nM
COc1ccc(C(F)(F)F)cc1NC(=O)Nc1ccc(-n2c3c(c4ncnc(N)c42)CCC3)cc1 [Compound 58],100 to 1000 nM,100 to 1000 nM,< 100 nM
Nc1ncnc2c3c(n(CCCCc4ccccc4)c12)CCC3 [Compound 51],,,> 1000 nM
Nc1ncnc2c3c(n(Cc4ccccc4)c12)CCC3 [Compound 15],,,> 1000 nM
Nc1ccc(-n2c3c(c4ncnc(N)c42)COC3)cc1 [Compound 32],,,100 to 1000 nM
Nc1ncnc2c3c(n(CCCc4ccccc4)c12)CCC3 [Compound 40],,,100 to 1000 nM
COc1cc(NC(=O)Nc2ccc(-n3c4c(c5ncnc(N)c53)CCC4)cc2)cc(C(F)(F)F)c1 [Compound 70],,,< 100 nM
Nc1ncnc2c3c(n(-c4ccc(NC(=O)Nc5cc(C(F)(F)F)ccc5F)c(F)c4)c12)CCC3 [Compound 62],100 to 1000 nM,100 to 1000 nM,< 100 nM
CS(=O)(=O)c1ccc(NC(=O)Nc2ccc(-n3c4c(c5ncnc(N)c53)CCC4)cc2)cc1 [Compound 64],100 to 1000 nM,> 1000 nM,100 to 1000 nM
COc1ccc(-n2c3c(c4ncnc(N)c42)CCC3)cc1OC [Compound 34],,,> 1000 nM
Nc1ncnc2c3c(n(-c4ccc(NC(=O)c5ccccc5)cc4)c12)CCC3 [Compound 10],> 1000 nM,> 1000 nM,> 1000 nM
Nc1ncnc2c3c(n(-c4ccc(NC(=O)Nc5cccc(C(F)(F)F)c5)cc4)c12)COC3 [Compound 48],< 100 nM,100 to 1000 nM,< 100 nM

SMILES,IC50 [1],EC50 [2],EC50 [3]
Nc1ncnc2c3c(n(-c4ccc(NC(=O)NC5CCCCC5)cc4)c12)CCC3 [Compound 41],100 to 1000 nM,100 to 1000 nM,< 100 nM
Nc1ncnc2c3c(n(-c4ccc(Nc5ccccc5)cc4)c12)CCC3 [Compound 12],> 1000 nM,> 1000 nM,> 1000 nM
COc1ccc(NC(=O)Nc2ccc(-n3c4c(c5ncnc(N)c53)CCC4)cc2)cc1 [Compound 13],,< 100 nM,< 100 nM
Nc1ncnc2c3c(n(-c4ccccc4)c12)CCC3 [Compound 49],,,100 to 1000 nM
Nc1ncnc2c3c(n(-c4ccc(NC(=O)Nc5ccc(F)cc5)cc4)c12)COC3 [Compound 33],100 to 1000 nM,100 to 1000 nM,100 to 1000 nM
Nc1ncnc2c3c(n(-c4ccc(NC(=O)Nc5ccc(F)cc5F)cc4)c12)CCC3 [Compound 50],100 to 1000 nM,< 100 nM,< 100 nM
Nc1ncnc2c3c(n(-c4ccc(NC(=O)NCc5ccccc5)cc4)c12)CCC3 [Compound 30],100 to 1000 nM,100 to 1000 nM,< 100 nM
Nc1ncnc2c3c(n(-c4ccc(NC(=O)Nc5ccccc5F)cc4)c12)CCC3 [Compound 39],100 to 1000 nM,< 100 nM,100 to 1000 nM
Nc1ncnc2c3c(n(-c4ccc(NC(=O)NCCc5ccc(F)cc5)cc4)c12)CCC3 [Compound 42],,100 to 1000 nM,< 100 nM
C[C@@H](NC(=O)Nc1ccc(-n2c3c(c4ncnc(N)c42)CCC3)cc1)c1ccccc1 [Compound 45],100 to 1000 nM,100 to 1000 nM,< 100 nM
Nc1ncnc2c3c(n(-c4ccc(NC(=O)Nc5cc(C(F)(F)F)ccc5Cl)cc4)c12)CCC3 [Compound 69],100 to 1000 nM,100 to 1000 nM,< 100 nM
N#Cc1ccc(NC(=O)Nc2ccc(-n3c4c(c5ncnc(N)c53)CCC4)cc2)cc1 [Compound 65],> 1000 nM,100 to 1000 nM,< 100 nM
COc1cccc(NC(=O)Nc2ccc(-n3c4c(c5ncnc(N)c53)CCC4)cc2)c1 [Compound 11],< 100 nM,< 100 nM,< 100 nM
Nc1ncnc2c3c(n(CCc4ccccc4)c12)CCC3 [Compound 29],,,> 1000 nM
Nc1ncnc2c3c(n(-c4ccc(NC(=O)Nc5ccccc5Cl)cc4)c12)CCC3 [Compound 36],100 to 1000 nM,100 to 1000 nM,> 1000 nM
C[C@H](NC(=O)Nc1ccc(-n2c3c(c4ncnc(N)c42)CCC3)cc1)c1ccccc1 [Compound 38],,100 to 1000 nM,> 1000 nM
Nc1ncnc2c3c(n(-c4ccc(NC(=O)Nc5ccccc5)cc4)c12)CCC3 [Compound 4],< 100 nM,< 100 nM,< 100 nM
Nc1ncnc2c3c(n(-c4ccc(NC(=O)Nc5cccc(OC(F)F)c5)cc4)c12)CCC3 [Compound 57],100 to 1000 nM,< 100 nM,< 100 nM
Nc1ccc(-n2c3c(c4ncnc(N)c42)CCC3)cc1 [Compound 2],,,< 100 nM
Nc1ncnc2c3c(n(-c4ccc(NC(=O)Nc5cccc(C(F)(F)F)c5)cc4)c12)CCC3 [Compound 17],100 to 1000 nM,< 100 nM,< 100 nM
Cc1ccc(F)c(NC(=O)Nc2ccc(-n3c4c(c5ncnc(N)c53)CCC4)cc2)c1 [Compound 43],< 100 nM,< 100 nM,< 100 nM
CC(C)(C)c1cc(NC(=O)Nc2ccc(-n3c4c(c5ncnc(N)c53)CCC4)cc2)no1 [Compound 74],< 100 nM,< 100 nM,
Nc1ncnc2c3c(n(-c4ccc(NC(=O)OCc5ccccc5)cc4)c12)COC3 [Compound 31],,,100 to 1000 nM
COc1ccc(-n2c3c(c4ncnc(N)c42)CCC3)cc1 [Compound 7],,,> 1000 nM
Nc1ncnc2c3c(n(-c4ccc(O)cc4)c12)CCC3 [Compound 26],,,> 1000 nM
